ChEMBL document CHEMBL5113522, “Discovery of CH7057288 as an Orally Bioavailable, Selective, and Potent pan-TRK Inhibitor” (J Med Chem, 2022)
pIC50: −log10 of the molar value.

Experiments:
[1] = target: High affinity nerve growth factor receptor (Homo sapiens, UniProt P04629); test: Inhibition of TRKA (unknown origin)
[2] = target: Vascular endothelial growth factor receptor 2 (Homo sapiens, UniProt P35968); test: Inhibition of KDR (unknown origin)
CYP3A4 = CYP3A4 (Homo sapiens, UniProt P08684); test: Induction of CYP3A4 in human hepatocytes assessed as fold induction at 1 uM using testosterone as substrate preincubated with replacement of fresh medium containing compound every 24 hrs for 72 hrs followed by substrate addition and measured after 1 hr by LC-MS/MS analysis relative to control; assay type: ADME, cell-based, Hepatocyte; details: probe testosterone, time 73 hrs, read-out: FC
Sequence of CYP3A4 (P08684 whole entry): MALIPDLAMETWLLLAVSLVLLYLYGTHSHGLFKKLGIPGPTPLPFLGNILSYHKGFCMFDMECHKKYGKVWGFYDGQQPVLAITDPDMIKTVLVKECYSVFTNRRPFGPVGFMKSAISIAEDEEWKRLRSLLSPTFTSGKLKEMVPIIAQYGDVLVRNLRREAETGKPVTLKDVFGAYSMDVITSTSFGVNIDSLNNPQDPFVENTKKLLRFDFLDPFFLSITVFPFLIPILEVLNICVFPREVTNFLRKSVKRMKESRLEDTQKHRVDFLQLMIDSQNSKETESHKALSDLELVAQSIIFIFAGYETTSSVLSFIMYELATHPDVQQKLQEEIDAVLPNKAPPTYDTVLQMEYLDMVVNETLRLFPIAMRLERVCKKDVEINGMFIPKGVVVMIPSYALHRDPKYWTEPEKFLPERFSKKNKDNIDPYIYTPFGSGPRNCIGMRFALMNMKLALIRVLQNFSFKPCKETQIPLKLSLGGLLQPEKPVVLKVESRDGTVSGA

[3] = target: Tyrosine-protein kinase Lck (Homo sapiens, UniProt P06239); test: Inhibition of LCK (unknown origin)
Sequence of Tyrosine-protein kinase Lck (P06239 whole entry): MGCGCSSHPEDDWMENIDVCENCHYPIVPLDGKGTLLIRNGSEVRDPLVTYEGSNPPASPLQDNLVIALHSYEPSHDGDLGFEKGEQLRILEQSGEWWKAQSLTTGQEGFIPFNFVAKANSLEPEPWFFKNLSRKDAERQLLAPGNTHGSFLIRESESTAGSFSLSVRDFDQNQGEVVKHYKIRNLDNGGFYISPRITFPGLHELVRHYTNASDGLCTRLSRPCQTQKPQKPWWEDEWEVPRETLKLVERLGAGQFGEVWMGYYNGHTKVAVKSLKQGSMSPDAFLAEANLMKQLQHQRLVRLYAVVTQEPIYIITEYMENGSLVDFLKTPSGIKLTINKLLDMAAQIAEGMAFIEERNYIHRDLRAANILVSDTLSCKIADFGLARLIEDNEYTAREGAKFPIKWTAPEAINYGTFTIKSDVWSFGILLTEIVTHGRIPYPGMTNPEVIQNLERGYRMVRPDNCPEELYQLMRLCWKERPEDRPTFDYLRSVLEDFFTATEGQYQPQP

NIH3T3 = test: Antiproliferative activity against […] NIH3T3 cells expressing MPRIP-NTRK1 assessed as cell growth inhibition incubated for 4 to 7 days by CellTiter-Glo Luminescent Cell Viability Assay; assay type: functional, cell-based; details: Mus musculus
[4] = target: BDNF/NT-3 growth factors receptor (Homo sapiens, UniProt Q16620); test: Inhibition of TRKB (unknown origin)
[5] = target: NT-3 growth factor receptor (Homo sapiens, UniProt Q16288); test: Inhibition of TRKC (unknown origin)
[6] = target: Proto-oncogene tyrosine-protein kinase Src (Homo sapiens, UniProt P12931); test: Inhibition of Src (unknown origin)
[7] = target: ALK tyrosine kinase receptor (Homo sapiens, UniProt Q9UM73); test: Inhibition of ALK (unknown origin)
[8] = target: Epidermal growth factor receptor (Homo sapiens, UniProt P00533); test: Inhibition of EGFR (unknown origin)
Sequence of Epidermal growth factor receptor (P00533 whole entry): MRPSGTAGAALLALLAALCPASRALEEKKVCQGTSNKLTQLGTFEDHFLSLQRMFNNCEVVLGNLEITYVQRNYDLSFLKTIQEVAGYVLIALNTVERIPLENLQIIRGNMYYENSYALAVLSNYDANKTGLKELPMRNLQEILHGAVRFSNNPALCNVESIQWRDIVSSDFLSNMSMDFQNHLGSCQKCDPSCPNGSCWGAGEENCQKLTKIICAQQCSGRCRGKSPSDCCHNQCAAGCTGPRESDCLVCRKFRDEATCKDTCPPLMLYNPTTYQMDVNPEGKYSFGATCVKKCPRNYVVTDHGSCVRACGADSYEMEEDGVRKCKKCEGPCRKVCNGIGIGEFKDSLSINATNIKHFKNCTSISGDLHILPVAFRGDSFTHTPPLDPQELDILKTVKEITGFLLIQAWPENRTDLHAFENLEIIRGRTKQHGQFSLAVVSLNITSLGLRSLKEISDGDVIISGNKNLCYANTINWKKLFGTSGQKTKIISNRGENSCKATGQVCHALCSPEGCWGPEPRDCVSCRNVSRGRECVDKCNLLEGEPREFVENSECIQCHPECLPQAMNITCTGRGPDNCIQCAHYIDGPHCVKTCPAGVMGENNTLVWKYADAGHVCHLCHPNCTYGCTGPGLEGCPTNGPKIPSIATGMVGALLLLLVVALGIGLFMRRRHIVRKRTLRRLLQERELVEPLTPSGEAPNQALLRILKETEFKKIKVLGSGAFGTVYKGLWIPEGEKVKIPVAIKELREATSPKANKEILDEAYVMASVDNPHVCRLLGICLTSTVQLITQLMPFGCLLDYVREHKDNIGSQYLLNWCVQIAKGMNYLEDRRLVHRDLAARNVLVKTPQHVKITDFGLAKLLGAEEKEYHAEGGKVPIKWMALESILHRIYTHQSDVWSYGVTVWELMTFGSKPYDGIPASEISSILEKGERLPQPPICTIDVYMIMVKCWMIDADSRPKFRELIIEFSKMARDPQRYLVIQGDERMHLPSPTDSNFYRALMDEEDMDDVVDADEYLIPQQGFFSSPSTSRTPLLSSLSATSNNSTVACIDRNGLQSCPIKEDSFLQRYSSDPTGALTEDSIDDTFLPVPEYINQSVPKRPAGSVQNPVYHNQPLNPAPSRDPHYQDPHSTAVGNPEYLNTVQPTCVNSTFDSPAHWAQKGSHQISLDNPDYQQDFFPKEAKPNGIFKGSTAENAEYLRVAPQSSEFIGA

[9] = target: Fibroblast growth factor receptor 2 (Homo sapiens, UniProt P21802); test: Inhibition of FGFR2 (unknown origin)
[10] = target: Receptor tyrosine-protein kinase erbB-2 (Homo sapiens, UniProt P04626); test: Inhibition of HER2 (unknown origin)
Insulin receptor = Insulin receptor (Homo sapiens, UniProt P06213); test: Inhibition of INSR (unknown origin)
[11] = target: Tyrosine-protein kinase JAK2 (Homo sapiens, UniProt O60674); test: Inhibition of JAK2 (unknown origin)
[12] = target: Hepatocyte growth factor receptor (Homo sapiens, UniProt P08581); test: Inhibition of MET (unknown origin)
[13] = target: RAC-alpha serine/threonine-protein kinase (Homo sapiens, UniProt P31749); test: Inhibition of AKT1 (unknown origin)
[14] = target: Cyclin-dependent kinase 1 (Homo sapiens, UniProt P06493); test: Inhibition of CDK1 (unknown origin)
[15] = target: Serine/threonine-protein kinase Chk1 (Homo sapiens, UniProt O14757); test: Inhibition of CHK1 (unknown origin)
Sequence of Serine/threonine-protein kinase Chk1 (O14757 whole entry): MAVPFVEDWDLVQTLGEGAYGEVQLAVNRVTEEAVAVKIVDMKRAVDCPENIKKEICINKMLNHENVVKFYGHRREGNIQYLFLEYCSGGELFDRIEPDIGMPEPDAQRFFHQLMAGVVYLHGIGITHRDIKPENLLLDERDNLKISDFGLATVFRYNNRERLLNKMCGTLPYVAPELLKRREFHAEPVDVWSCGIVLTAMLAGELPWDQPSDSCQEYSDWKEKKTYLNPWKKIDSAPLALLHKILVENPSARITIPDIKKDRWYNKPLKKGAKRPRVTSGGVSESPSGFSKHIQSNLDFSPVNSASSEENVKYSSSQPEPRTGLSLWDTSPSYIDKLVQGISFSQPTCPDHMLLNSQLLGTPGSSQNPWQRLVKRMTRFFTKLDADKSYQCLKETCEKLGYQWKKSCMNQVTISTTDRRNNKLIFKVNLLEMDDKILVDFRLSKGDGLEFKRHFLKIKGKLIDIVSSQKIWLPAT

[16] = target: cAMP-dependent protein kinase (PKA) (Homo sapiens, UniProt P22694+P17612+P22612); test: Inhibition of PKA (unknown origin); assay type: protein assay
[17] = target: Protein kinase C alpha type (Homo sapiens, UniProt P17252); test: Inhibition of PKCalpha (unknown origin)
[18] = target: RAF proto-oncogene serine/threonine-protein kinase (Homo sapiens, UniProt P04049); test: Inhibition of RAF1 (unknown origin)

Sequence of High affinity nerve growth factor receptor (P04629 whole entry): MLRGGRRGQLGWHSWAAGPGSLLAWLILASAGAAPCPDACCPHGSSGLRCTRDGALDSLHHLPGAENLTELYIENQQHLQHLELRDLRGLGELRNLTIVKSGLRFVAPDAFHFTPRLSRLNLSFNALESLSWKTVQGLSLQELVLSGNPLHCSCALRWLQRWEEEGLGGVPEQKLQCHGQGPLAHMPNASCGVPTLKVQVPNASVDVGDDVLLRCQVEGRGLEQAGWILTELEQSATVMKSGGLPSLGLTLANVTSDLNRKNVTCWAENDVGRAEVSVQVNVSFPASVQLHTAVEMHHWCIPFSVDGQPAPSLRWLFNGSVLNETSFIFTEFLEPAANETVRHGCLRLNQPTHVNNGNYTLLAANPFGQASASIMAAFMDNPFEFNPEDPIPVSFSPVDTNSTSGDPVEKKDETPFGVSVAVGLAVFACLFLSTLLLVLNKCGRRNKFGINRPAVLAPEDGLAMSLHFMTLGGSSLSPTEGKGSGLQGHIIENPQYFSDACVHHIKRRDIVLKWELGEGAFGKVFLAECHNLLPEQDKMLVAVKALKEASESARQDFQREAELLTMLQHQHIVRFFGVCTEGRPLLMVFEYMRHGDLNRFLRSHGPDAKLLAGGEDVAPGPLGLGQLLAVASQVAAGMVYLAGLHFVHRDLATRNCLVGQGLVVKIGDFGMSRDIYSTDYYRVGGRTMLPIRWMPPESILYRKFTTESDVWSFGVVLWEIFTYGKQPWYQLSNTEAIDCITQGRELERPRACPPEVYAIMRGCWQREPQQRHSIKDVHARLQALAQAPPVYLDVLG
Sequence of Vascular endothelial growth factor receptor 2 (P35968 whole entry): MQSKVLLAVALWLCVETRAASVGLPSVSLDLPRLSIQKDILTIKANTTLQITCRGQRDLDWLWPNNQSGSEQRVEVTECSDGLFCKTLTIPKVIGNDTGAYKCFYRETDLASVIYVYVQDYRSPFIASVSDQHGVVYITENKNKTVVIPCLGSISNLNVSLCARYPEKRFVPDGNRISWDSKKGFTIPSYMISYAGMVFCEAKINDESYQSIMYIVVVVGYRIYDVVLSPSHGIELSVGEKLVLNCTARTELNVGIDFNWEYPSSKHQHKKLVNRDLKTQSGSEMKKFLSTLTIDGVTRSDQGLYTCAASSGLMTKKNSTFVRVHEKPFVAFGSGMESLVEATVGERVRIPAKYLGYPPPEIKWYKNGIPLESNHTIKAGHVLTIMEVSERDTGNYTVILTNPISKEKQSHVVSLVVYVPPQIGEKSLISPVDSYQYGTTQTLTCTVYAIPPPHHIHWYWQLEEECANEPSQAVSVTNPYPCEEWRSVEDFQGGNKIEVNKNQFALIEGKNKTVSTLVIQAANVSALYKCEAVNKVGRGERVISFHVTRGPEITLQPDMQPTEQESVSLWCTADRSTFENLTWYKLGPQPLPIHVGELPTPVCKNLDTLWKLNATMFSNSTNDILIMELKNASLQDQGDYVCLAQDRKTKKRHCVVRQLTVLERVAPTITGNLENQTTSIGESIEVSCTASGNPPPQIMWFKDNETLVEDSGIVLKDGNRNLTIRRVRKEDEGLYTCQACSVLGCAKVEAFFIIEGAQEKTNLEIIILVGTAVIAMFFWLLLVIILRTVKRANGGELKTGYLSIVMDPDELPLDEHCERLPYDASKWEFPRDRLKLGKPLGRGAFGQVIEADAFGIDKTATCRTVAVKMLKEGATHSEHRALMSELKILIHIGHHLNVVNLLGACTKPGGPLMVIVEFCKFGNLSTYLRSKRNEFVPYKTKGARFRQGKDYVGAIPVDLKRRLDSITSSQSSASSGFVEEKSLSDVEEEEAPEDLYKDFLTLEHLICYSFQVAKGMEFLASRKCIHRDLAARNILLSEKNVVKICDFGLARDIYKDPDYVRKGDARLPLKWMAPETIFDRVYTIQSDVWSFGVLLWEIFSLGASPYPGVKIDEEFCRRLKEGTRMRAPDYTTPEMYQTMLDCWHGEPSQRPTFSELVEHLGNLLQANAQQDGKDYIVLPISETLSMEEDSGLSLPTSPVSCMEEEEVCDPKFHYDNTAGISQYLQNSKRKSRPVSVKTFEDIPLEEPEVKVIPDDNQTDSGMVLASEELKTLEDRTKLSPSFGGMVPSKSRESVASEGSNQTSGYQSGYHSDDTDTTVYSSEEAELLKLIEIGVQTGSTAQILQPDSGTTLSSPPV

SMILES	pIC50 [1]	pIC50 [2]	fold induction at 1 h, 1 µM (CYP3A4)	pIC50 [3]	pIC50 (NIH3T3)	also measured
CC1(C)c2cc(N3CC4(COC4)C3)ccc2C(=O)c2c1oc1cc(C#Cc3cc(OCC4CC4)ccn3)ccc21	8.52	6.37	2.6	7.07	7.16	–
CC1(C)c2cc(OCCN3CCCOCC3)ccc2C(=O)c2c1oc1cc(C#Cc3cc(OCC4CC4)ccn3)ccc21	8.55	6.02	6.1	7.02	7.10	–
CCCc1cc(C(=O)NC(C)(C)C)cc(C#Cc2ccc3c4c(oc3c2)C(C)(C)c2cc(NS(C)(=O)=O)ccc2C4=O)n1	8.92	< 6.00	0.9	7.02	7.92	–
CC1(C)c2cc(OCCN3CCOCC3)ccc2C(=O)c2c1oc1cc(C#Cc3cc(OCC(F)(F)F)ccn3)ccc21	8.48	< 6.00	6.3	6.48	7.68	–
CC(C)(C)NC(=O)c1ccnc(C#Cc2ccc3c4c(oc3c2)C(C)(C)c2cc(NS(C)(=O)=O)ccc2C4=O)c1	9.15	6.22	4.7	6.89	7.85	–
CC1(C)c2cc(OCCN3CCOCC3)ccc2C(=O)c2c1oc1cc(C#Cc3cc(OCC4(CO)CC4)ccn3)ccc21	8.48	6.02	7.9	6.43	6.74	–
CC(C)(C)NC(=O)c1cc(C#N)nc(C#Cc2ccc3c4c(oc3c2)C(C)(C)c2cc(NS(C)(=O)=O)ccc2C4=O)c1	8.55	< 6.00	11	7.24	7.17	–
Cc1cnc(C#Cc2ccc3c4c(oc3c2)C(C)(C)c2cc(NS(C)(=O)=O)ccc2C4=O)cc1C(=O)NC(C)(C)C	8.42	< 6.00	2.6	6.12	7.19	–
CCc1cc(C(=O)NC(C)(C)C)cc(C#Cc2ccc3c4c(oc3c2)C(C)(C)c2cc(NS(C)(=O)=O)ccc2C4=O)n1	9.15	< 6.00	2.8	6.49	7.92	–
CC(C)(C)NC(=O)c1cc(C#Cc2ccc3c4c(oc3c2)C(C)(C)c2cc(NS(C)(=O)=O)ccc2C4=O)nc(C(F)(F)F)c1	8.59	< 6.00	2.5	6.89	7.26	–
CC1(C)c2cc(OCCN3C4CCC3COC4)ccc2C(=O)c2c1oc1cc(C#Cc3cc(OCC4CC4)ccn3)ccc21	7.74	< 6.00	6.7	6.77	6.74	–
CC1(C)c2cc(OCCN3CCOCC3)ccc2C(=O)c2c1oc1cc(C#Cc3cc(C(=O)NC4CC4)ccn3)ccc21	8.89	< 6.00	12	6.74	7.52	–
CC1(C)c2cc(OCCN3CCOCC3)ccc2C(=O)c2c1oc1cc(C#Cc3cc(OCC4CC4)ccn3)ccc21	8.35	6.12	6.5	–	–	pIC50 [4]: 8.09; pIC50 [5]: 8.16; pIC50 [6]: 5.70; pIC50 [7]: 5.55; pIC50 [8]: < 5.00; pIC50 [9]: < 5.00; pIC50 [10]: < 5.00; pIC50 (Insulin receptor): < 5.00; pIC50 [11]: < 5.00; pIC50 [12]: < 5.00; pIC50 [13]: < 5.00; pIC50 [14]: < 5.00; pIC50 [15]: < 5.00; IC50 [16]: > 10 µM; pIC50 [17]: < 5.00; pIC50 [18]: < 5.00
CC1(C)NC(=O)N(CCOc2ccc3c(c2)C(C)(C)c2oc4cc(C#Cc5cc(OCC6CC6)ccn5)ccc4c2C3=O)C1=O	7.89	< 6.00	1.9	6.85	6.82	–
CC1(C)c2cc(N3CCNC(=O)C3)ccc2C(=O)c2c1oc1cc(C#Cc3cc(OCC4CC4)ccn3)ccc21	8.85	6.54	4.2	7.30	7.80	–
CC1(C)c2cc(OCCN3CCOCC3)ccc2C(=O)c2c1oc1cc(C#Cc3cc(OCCC4CC4)ccn3)ccc21	8.70	6.31	6.4	6.66	6.28	–
CC1(C)c2cc(OCCN3CCOCC3)ccc2C(=O)c2c1oc1cc(C#Cc3cc(OCC4CCC4)ccn3)ccc21	8.57	6.77	3.1	7.28	6.68	–
CC1(COc2ccnc(C#Cc3ccc4c5c(oc4c3)C(C)(C)c3cc(OCCN4CCOCC4)ccc3C5=O)c2)CC1	8.70	6.38	6.1	6.80	7.14	–
CC1(C)c2cc(OCCN3CC4(COC4)C3)ccc2C(=O)c2c1oc1cc(C#Cc3cc(OCC4CC4)ccn3)ccc21	8.40	6.30	1.4	7.66	7.34	–
CC(C)(C)NC(=O)c1cc(Cl)nc(C#Cc2ccc3c4c(oc3c2)C(C)(C)c2cc(NS(C)(=O)=O)ccc2C4=O)c1	8.66	< 6.00	3	6.74	7.32	–
CC1(C)c2cc(N3CCOCC3)ccc2C(=O)c2c1oc1cc(C#Cc3cc(OCC4CC4)ccn3)ccc21	8.47	6.16	5.4	6.72	7.28	–
CC1(C)c2cc(NS(C)(=O)=O)ccc2C(=O)c2c1oc1cc(C#Cc3cc(OCC4CC4)ccn3)ccc21	8.41	< 6.00	1.2	6.65	7.12	–
CC1(C)c2cc(OCCN3CCNC(=O)C3)ccc2C(=O)c2c1oc1cc(C#Cc3cc(OCC4CC4)ccn3)ccc21	8.68	6.38	5.2	7.17	7.72	–
CC1(C)c2cc(NS(C)(=O)=O)ccc2C(=O)c2c1oc1cc(C#Cc3cc(C(=O)NC4CC4)ccn3)ccc21	8.62	< 6.00	2.8	6.84	7.08	–
COCCOc1ccnc(C#Cc2ccc3c4c(oc3c2)C(C)(C)c2cc(OCCN3CCOCC3)ccc2C4=O)c1	7.82	< 6.00	6.3	6.09	6.89	–
Cc1c(C(=O)NC(C)(C)C)ccnc1C#Cc1ccc2c3c(oc2c1)C(C)(C)c1cc(NS(C)(=O)=O)ccc1C3=O	8.42	< 6.00	4.1	6.52	7.35	–
CC1(C)c2cc(OCCN3CCOCC3)ccc2C(=O)c2c1oc1cc(C#Cc3cncc(OCC4CC4)c3)ccc21	6.80	–	–	–	–	–
CC1(C)c2cc(NS(C)(=O)=O)ccc2C(=O)c2c1oc1cc(C#Cc3cc(OCC(F)(F)F)ccn3)ccc21	8.66	6.00	3.4	6.80	7.17	–
